# According to PubChem BioAssay AID492955 (The Scripps Research Institute Molecular Screening Center, 2010):
# Active and inactive are the calls of the source.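 Rule for the calls: active = at 10 µM dose, any replicate showing 50% or greater reduction of parasite growth in red cells; inactive = the rest.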
# Test system: P. falciparum 3D7 in RBCs, 3H-hypoxanthine uptake, 48 h
# Assay: single-dose blood-stage antimalarial activity – cell-based, radiolabel, RBCs, powder samples, M17LAP inhibitor project, late-stage follow-up (AID 492955)
# Settings: at 10 µM; hits give high values
row,SMILES,inhibition
1,Cc1cc(C(=O)COC(=O)c2ccc[nH]c2=O)c(C)n1-c1ccccc1,6.67% (inactive)
2,O=c1cc(-c2ccc(F)cc2)[nH][nH]1,5.67% (inactive)
3,Cc1cc(C(=O)COC(=O)c2ccc[nH]c2=O)c(C)n1-c1ccc(F)cc1,0% (inactive)
4,O=C(Nc1ccc(Cl)cc1)Nc1cccc(C(=O)O)c1,0% (inactive)
5,CCc1cc2cc3c(cc2nc1SCC(=O)Nc1cc(OC)c(OC)cc1C(=O)O)OCO3,0% (inactive)
6,CCOc1cccc(-c2cc(=O)[nH][nH]2)c1,2.83% (inactive)
7,O=C(CSc1nccc(=O)[nH]1)Nc1ccc(Br)c(Cl)c1,8.67% (inactive)
8,CCc1cc2ccc(C)cc2nc1SCC(=O)Nc1cc(OC)c(OC)cc1C(=O)O,6.44% (inactive)
9,Cc1ccc(Nc2nnc(SCc3cc(=O)n4ccsc4n3)s2)c(C)c1,18.4% (inactive)
10,Cc1ccc(-n2c(C)cc(C(=O)COC(=O)c3ccc[nH]c3=O)c2C)cc1C,3.17% (inactive)
11,Cc1noc(NS(=O)(=O)c2ccc(NC(=O)CSc3nnc4c(n3)[nH]c3ccccc34)cc2)c1C,1.67% (inactive)
12,CC(=O)NS(=O)(=O)c1ccc(N=c2ssc3c2-c2ccc(C)cc2NC3(C)C)cc1,4.5% (inactive)
13,CCOC(=O)c1c(NC(=O)[C@@H]2C3CCC(O3)[C@@H]2C(=O)O)sc(C)c1-c1ccc(C)cc1 (stereo partly specified),0% (inactive)
14,O=C(CSc1nc(O)cc(=O)n1-c1ccccc1)Nc1ccc2c3c(cccc13)CC2,3% (inactive)
15,O=C(CSc1nnc(Nc2ccccc2)s1)NN1C(=O)NC2(CCCCC2)C1=O,12.9% (inactive)
16,CCCCc1c(O)nc(SCC(=O)Nc2ccc3c(c2)CCC3)[nH]c1=O,7.67% (inactive)
17,COC(=O)c1c(NC(=O)[C@H]2CC=CC[C@H]2C(=O)O)sc(C)c1C,1.33% (inactive)
18,COc1cc(NC(=O)CSc2nnc3c(C)cc4cc(C)cc(C)c4n23)c(C(=O)O)cc1OC,7.56% (inactive)
19,CCc1ccc(Nc2nnc(SC3CCOC3=O)s2)cc1 (stereo unspecified),0% (inactive)
20,CCOc1ccc(NC(=O)Nc2cccs2)cc1,0% (inactive)
21,O=C(O)CCCCCNC(=O)Nc1ccc2c(c1)OCCO2,6.33% (inactive)
22,COc1cc(NC(=O)CSc2ncnc3scc(-c4ccccc4)c23)c(C(=O)O)cc1OC,6.83% (inactive)

row,SMILES,inhibition
1,Cn1c(SCC(=O)Nc2cccc3ccccc23)nc(O)cc1=O,2.5% (inactive)
2,Cc1ccc(Nc2nnc(SC3CCOC3=O)s2)cc1 (stereo unspecified),4% (inactive)
3,CCOc1ccc(NC(=O)Nc2ccc3nccnc3c2)cc1,16% (inactive)
4,COC(=O)c1c(NC(=O)[C@H]2CCCC[C@H]2C(=O)O)sc2c1CCCCC2,3.33% (inactive)
5,CC1=Nc2ccc(C)cc2/C1=C/c1c(N)n2c(S(=O)(=O)C(C)C)nsc2nc1=O,19.2% (inactive)
6,C=CCn1c(SCC(=O)Nc2cccc3ccccc23)nc(O)c(CC)c1=O,8.22% (inactive)
7,S=c1nc(-c2ccccc2Br)[nH][nH]1,0% (inactive)
8,COC(=O)c1c(-c2ccc(C)cc2)csc1NC(=O)[C@H]1CC=CC[C@H]1C(=O)O,0% (inactive)
9,CCc1ccc(NC(=O)[C@H]2CC=CC[C@H]2C(=O)O)cc1,0% (inactive)
10,S=c1nc(-c2cccc(Cl)c2)[nH][nH]1,0% (inactive)
11,O=C(Nc1cc(Cl)ccc1Cl)[C@H]1CC=CC[C@H]1C(=O)O,1.33% (inactive)
12,COc1ccc(C(C)(C)C)cc1NC(=O)[C@H]1CC=CC[C@H]1C(=O)O,0% (inactive)
13,CC1=C(C)C[C@@H](C(=O)O)[C@@H](C(=O)Nc2cccc([N+](=O)[O-])c2)C1,11.2% (inactive)
14,O=C(O)Cc1ccc(NC(=O)Nc2ccc(Br)cc2)cc1,1.67% (inactive)
15,O=c1cc(-c2ccc(Cl)c(Cl)c2)[nH][nH]1,2.67% (inactive)
16,COc1ccc(NC(=O)CSC2=NC(=O)CC(C)=N2)cc1,0% (inactive)
17,N#Cc1c(-c2ccccc2)nc(SCC(=O)N2c3ccccc3Sc3ccccc32)[nH]c1=O,1% (inactive)
18,COC(=O)c1c(-c2ccco2)csc1NC(=O)[C@H]1CC=CC[C@H]1C(=O)O,0% (inactive)
19,CCN(CC)c1ccc(NC(=O)CSc2nc(C)cc(=O)[nH]2)cc1,3.5% (inactive)
20,COC(=O)c1c(-c2cc(C)ccc2C)csc1NC(=O)[C@@H]1CC=CC[C@@H]1C(=O)O,3.33% (inactive)
21,CN1C(=O)/C(=C/c2ccc(-c3ccccc3[N+](=O)[O-])o2)SC1=Nc1ccc(Cl)c(C(=O)O)c1,0% (inactive)
22,COc1ccc(-c2cc(=O)[nH][nH]2)cc1OC,3.83% (inactive)

row,SMILES,inhibition
1,O=C(Nc1cccc(Cl)c1)[C@H]1CC=CC[C@H]1C(=O)O,0.333% (inactive)
2,Cc1ccc(-n2c(C)cc(C(=O)COC(=O)c3ccc[nH]c3=O)c2C)cc1,20% (inactive)
3,CC(C)c1ccc(NC(=O)[C@H]2CCCC[C@H]2C(=O)O)cc1,5.67% (inactive)
4,COc1ccc(-c2cc(=O)[nH][nH]2)cc1,0% (inactive)
5,COC(=O)c1cccc(NC(=O)CSc2nc(C)cc(=O)[nH]2)c1,9.78% (inactive)
6,COc1cc(NC(=O)CSc2nc3cc(C)ccc3cc2C)c(C(=O)O)cc1OC,5.17% (inactive)
7,CCOC(=O)c1c(-c2cccc(C)c2)csc1NC(=O)[C@H]1CC=CC[C@H]1C(=O)O,1.83% (inactive)
8,Cc1ccc(-c2cccc(NC(=O)[C@@H]3C4C=CC(C4)[C@@H]3C(=O)O)c2)o1 (stereo partly specified),8.83% (inactive)
9,COc1cc(NC(=O)CSc2nc3ccccc3cc2C)c(C(=O)O)cc1OC,5.89% (inactive)
10,Cc1ccc(-c2c(C)sc(NC(=O)[C@@H]3C4CCC(O4)[C@@H]3C(=O)O)c2C(=O)OC(C)C)cc1 (stereo partly specified),6.33% (inactive)
11,CCOC(=O)c1c(-c2ccc(C)cc2)csc1NC(=O)[C@H]1CC=CC[C@H]1C(=O)O,10.7% (inactive)
12,CCc1cc2cc(OC)ccc2nc1SCC(=O)Nc1cc(OC)c(OC)cc1C(=O)O,2.33% (inactive)
13,N#Cc1c(NC(=O)[C@@H]2C3C=CC(C3)[C@@H]2C(=O)O)sc2c1CCCCC2 (stereo partly specified),0% (inactive)
14,CCCCOc1ccc(CC(=O)NO)cc1,81.2%
15,CCc1nnc(NC(=O)CSc2nnc(-c3ccc(NS(=O)(=O)c4ccccc4)cc3)o2)s1,2.33% (inactive)
16,COc1cc(NC(=O)CSc2nc3c(C)ccc(C)c3cc2C)c(C(=O)O)cc1OC,5% (inactive)
17,CCOC(=O)c1c(NC(=O)[C@@H]2C3C=CC(C3)[C@@H]2C(=O)O)sc2c1CCC(CC)C2 (stereo partly specified),5% (inactive)
18,COc1ccc2nc(SCC(=O)Nc3cc(OC)c(OC)cc3C(=O)O)c(C)cc2c1,1.44% (inactive)
19,CCn1c2ccccc2c2cc(NC(=O)CSc3nccc(=O)[nH]3)ccc21,2.67% (inactive)
20,CCc1cc2ccccc2nc1SCC(=O)Nc1cc(OC)c(OC)cc1C(=O)O,2.78% (inactive)
21,Cc1ccc(NC(=O)CSc2nnc(C)c(=O)[nH]2)cc1C,15.8% (inactive)
22,COc1ccc(NC(=O)CSc2nc(O)cc(=O)n2C)cc1,3.67% (inactive)
